Experimental data reported in patent US20060029684A1, “Synergistic treatment of DNA viral infections” (Henderson Morley Research and Development Limited, priority 1999, published 2006).
Read-outs that look alike come from different tables or passages of the source.

Key:
[1] = system: type 2 herpes simplex virus strain 3345; assay: Inhibition of HSV2 replication in infected African green monkey kidney cells (Example 1, Table 1); assay type: cell-based; settings: for inhibition of virus replication: Lithium 0 mN
From the text: Compositions were applied to African green monkey kidney and […] cells infected with type 2 herpes simplex virus strains 3345 and 180 at low, intermediate and high multiplicities of infection. MOI inhibition of virus replication was scored as follows: […]

[2] = system: Type 2 herpes simplex strain 3345; assay: Herpes simplex virus bioassay in Vero cells, inhibition of hsv2 (Example 2); assay type: cell-based; settings: Human alphaherpesvirus 2, Vero
Protocol: . Culture and assay methods follow those described by Lennette and Schmidt (1979) for herpes simplex virus and Vero cells with minor modifications.
Type 1 herpes simplex strain HFEM is a derivative of the Rockerfeller strain HF (Wildy 1955), and Type 2 herpes simplex strain 3345, a penile isolate (Skinner et al 1977) were used as prototype strains. These prototypes were stored at −80° C. until needed.
African Green Monkey kidney cells (vero) were obtained from the National Institute of Biological Standards and Control UK and were used as the only cell line for all experiments in this example.
Cells and viruses were maintained on Glasgows modified medium supplemented with 10% foetal bovine serum.

NS(=O)(=O)c1cc(C(=O)O)c(NCc2ccco2)cc1Cl [Frusemide, 4-chloro-N-furfuryl-5-sulfamoylanthranilic acid]
inhibition of virus replication ([1]; HIGH MOI HSV2, Frusemide 0.5 mg/ml): − (No inhibition)
inhibition of virus replication ([1]; HIGH MOI HSV2, Frusemide 1.0 mg/ml): − (No inhibition)
inhibition of virus replication ([1]; HIGH MOI HSV2, Frusemide 2.0 mg/ml): − (No inhibition)
inhibition at 500 µg/mL ([1]; Human alphaherpesvirus 2): 0%
inhibition at 1000 µg/mL ([1]; Human alphaherpesvirus 2): 0%
inhibition at 2000 µg/mL ([1]; Human alphaherpesvirus 2): 0%
inhibition of virus replication ([1]; LOW MOI HSV2, Frusemide 0.5 mg/ml): − (No inhibition)
inhibition of virus replication ([1]; LOW MOI HSV2, Frusemide 1.0 mg/ml): − (No inhibition)
inhibition of virus replication ([1]; LOW MOI HSV2, Frusemide 2.0 mg/ml): − (No inhibition)
inhibition of hsv2 replication ([1]; frusemide 2 mg/ml, all multiplicities of infection): no inhibition
inhibition at 1000 µg/mL ([2]; read-out: Inhibition of hsv2, Effect of frusemide alone, Multiplicity of infection High, frusemide (1 mg/ml)): 0%
inhibition at 1000 µg/mL ([2]; read-out: Inhibition of hsv2, Effect of frusemide alone, Multiplicity of infection Low, frusemide (1 mg/ml)): 40%
inhibition at 1000 µg/mL ([2]; read-out: Inhibition of hsv2, Effect of frusemide alone, Multiplicity of infection Medium, frusemide (1 mg/ml)): 40%
